Measurements taken from US20240010590A1 (priority 2020, published 2024).

What was measured:
[1] = system: BVDV; assay: Single-detergent treatment of pdFVIII-containing liquid, BVDV inactivation; assay type: cell-based, bovine viral diarrhea virus; conditions: single detergent 0.1%±0.01%, 23°C±1°C, within 5 minutes
[2] = system: BVDV; assay: Single-detergent treatment of IVIG-containing liquid, BVDV inactivation; assay type: cell-based, bovine viral diarrhea virus; conditions: single detergent 0.1%±0.01%, 17°C±1°C, within 10 minutes
[3] = system: BVDV; assay: Single-detergent treatment of buffer containing HSA, BVDV inactivation; assay type: cell-based, bovine viral diarrhea virus; conditions: 14°C±1°C; for virus reduction factor (RF): single detergent 0.1%±0.01%, within 5 minutes; for inactivation kinetics compared with Triton X-100: FIG. 4A, single detergent 0.09%-0.11%
[4] = system: PRV; assay type: cell-based, pseudorabies virus; conditions: IVIG-containing liquid, 17°C±1°C
[5] = system: X-MuLV; assay: S/D treatment of HSA-containing liquid, X-MuLV inactivation; assay type: cell-based, xenotropic murine leukemia virus; conditions: S/D mixture with PS80 and TnBP, 0.1% detergent
Procedure: FIG. 2: Virus inactivation efficiency of low concentrations of 4-tert-octylbenzyl alcohol polyethoxylate in S/D treatment of human serum albumin (HSA)-containing liquid at 1° C.±1° C. A three-component mixture was used to give final concentrations of 0.08%-0.1% 4-tert-octylbenzyl alcohol polyethoxylate, 0.02%-0.03% Polysorbate 80, 0.02%-0.03% TnBP (side-by-side comparison with same concentration of Triton X-100). Virus inactivation over time is indicated by the virus reduction factor (RF) for two runs with X-MuLV (A and B, respectively). Virus inactivation of S/D treatment using 4-tert-octylbenzyl alcohol polyethoxylate was compared to virus inactivation of S/D treatment using Triton X-100 (“TX-100”). Filled symbols show values with remaining infectivity, non-filled symbols show reduction factors below the limit of detection.
FIG. 3: Virus inactivation efficiency of low concentrations of 4-tert-octylbenzyl alcohol polyethoxylate in S/D treatment of HSA-containing liquid at 19° C.±1° C. A three-component mixture was used to give final concentrations of 0.08%-0.1% 4-tert-octylbenzyl alcohol polyethoxylate, 0.02%-0.03% Polysorbate 80, 0.02%-0.03% TnBP (side-by-side comparison with same concentration of Triton X-100). Virus inactivation over time is indicated by the virus reduction factor (RF) for two runs with X-MuLV (A and B, respectively). Virus inactivation of S/D treatment using 4-tert-octylbenzyl alcohol polyethoxylate was compared to virus inactivation of S/D treatment using Triton X-100 (“TX-100”). Filled symbols show values with remaining infectivity, non-filled symbols show reduction factors below the limit of detection.
The experiments were performed as described for Example 3 of WO 2019/086463. However, for the S/D treatment an S/D mixture comprising 4-tert-octylbenzyl alcohol polyethoxylate was tested and compared to an S/D mixture comprising Triton X-100. The composition of the S/D mixture comprising Triton X-100 was prepared as described in Example 3 of WO 2019/086463. […]

Substance	virus reduction factor (RF) [1]	virus reduction factor (RF) [2]	virus reduction factor (RF) [3]	inactivation kinetics compared with Triton X-100 ([4]; FIG. 1A, S/D treatment, 0.04%-0.06% detergent)	virus reduction factor (RF) ([4]; S/D mixture with PS80 and TnBP, 0.05% w/w detergent, within 1-2 minutes)	inactivation kinetics compared with Triton X-100 [3]	virus reduction factor (RF) ([5]; 1°C±1°C, within 10 minutes)	virus reduction factor (RF) ([5]; 19°C±1°C, within 10 minutes)	virus reduction factor (RF) ([5]; 19°C±1°C, within 30 min)
4-(1,1,3,3-tetramethylbutyl)phenol, ethoxylated [Triton X-100]	around 5	around 5	around 5						
4-tert-octylbenzyl alcohol polyethoxylate	around 5	around 5	around 5	identical inactivation kinetics	around 4	same inactivation kinetics as Triton X-100	over 2	over 2	around 4
4-tert-octylcyclohexyl alcohol polyethoxylate [Triton X-100 reduced]	around 5	around 5	around 5			same inactivation kinetics as Triton X-100			
n-hexadecyl alcohol polyethoxylate [Brij C10]			around 5						
